Patent publication US6998234B2, “Methods for cancer prognosis and diagnosis relating to tumor vascular endothelial cells” (Oncotech, Inc., priority 2000, dated 2006)

Tests used:
[1] = system: endothelial cells; details: from Mendel et al. 2000 (SU5416) and Laird et al. 2000 (SU6668); read-out: predetermined IC50 concentration; cited from earlier work
[2] = system: HUVEC; assay: Annexin V staining test for endothelial cells undergoing apoptosis (Annexin V-FITC/PI flow cytometry); assay type: cell-based, human; details: HUVEC on collagen I, 0.0011 μM mM docetaxel, FIG. 6
From the text: Altered cell attachment and loss of membrane integrity are among the earliest morphological features of programmed cell death. Annexin V, a 35-36 kDa Ca^2+-dependent phospholipid-binding protein, has a high affinity for the membrane phospholipid phosphatidylserine, normally located on the inner leaflet of the cell membrane (Raynal et al., 1994, Biochem. et Biophys. Acta. 1197:63-93). In cells undergoing apoptosis, however, phosphatidylserine is translocated to the outer leaflet of the plasma membrane and can be detected by Annexin V labeled with fluorescent dyes, such as FITC. To distinguish truly apoptotic cells from necrotic cells, Annexin V was used in combination with PI exclusion. In this assay, HUVEC undergoing apoptosis are Annexin V-positive, PI negative, while necrotic cells are Annexin V-positive, PI-positive.
As an example, HUVEC cells were cultured on collagen I and treated with 0.0011 μM mM docetaxel and then stained with both Annexin V and PI. Annexin V binding and PI staining of nuclei were documented for the same cell population using the PharMingen Annexin V flow cytometry assay and two-color immunofluorescence on live HUVEC monolayers. Staining with Annexin V-FITC was visible on the membrane as green fluorescence, and PI staining was visible in the nucleus as red fluorescence. […] In a separate experiment, HUVEC cells were transferred into Ultra Low Attachment 24-well plates (Corning, Inc., Corning N.Y.) covered with a layer of hydrogel that is hydrophilic and neutrally charged. The hydrogel surface inhibits non-specific immobilization, and therefore subsequent cell attachment, because proteins and other biomolecules passively adsorb to surfaces through hydrophobic and ionic interactions. Because of the lack of appropriate ECM providing anti-apoptotic signals, HUVEC undergo rapid apoptosis under these culture conditions. For example, 24 hours after their transfer into Ultra Low Attachment plates, 61% of HUVEC cells were undergoing an (Annexin V-positive, PI-negative) apoptotic process (shown in FIG. 7).

[3] = system: HUVEC; assay: Dil-ac-LDL uptake by HUVEC; assay type: cell-based, human; details: HUVEC on collagen I, 48 hours, 10 μM docetaxel, FIG. 12
From the text: The uptake of Dil-ac-LDL (Biomedical Technologies, Inc., Stoughton Mass.) was utilized to identify and characterize differentiated VEC using fluorescent microscopy on live cell monolayers. After uptake, Dil-ac-LDL is degraded by lysosomal enzymes in endothelial cells, with the Dil fluorescent probe accumulating in the intracellular membrane. (Pitas et al., 1985, J. Cell. Biol. 100:103-117). Discrimination using this system is high, because no other cell type, with the exception of macrophages, is labeled to the same degree as VEC (Voura et al, 1998, Microsc. Res. Tech. 43: 265-275; Pitas et al., 1985, J. Cell Biol. 100:103-117), and macrophages can be excluded from the analysis and sorting protocols with CD45 staining. In addition, macrophages can be differentiated from VEC because the […] is more brightly labeled with Dil-ac-LDL.
(§1) HUVEC were cultured for 48 hours on collagen I and treated with either 10 μM docetaxel, 1 μM docetaxel, or 10 μM thalidomide. The effect on cell morphology was observed by phase contrast microscopy. In addition, apoptotic HUVEC cultured on collagen in the presence of 10 μM docetaxel were stained with AnnexinV-FITC (green fluorescence) and PI (red fluorescence) and visualized with immunofluorescent photomicrography. […] An atypical pattern of Dil-ac-LDL accumulation in drug-treated cells was observed under high magnification.

[4] = system: VEC derived from fresh tumor specimens; assay: Microarray analysis of drug-resistant versus drug-sensitive tumor-derived VEC sorted by Annexin V; assay type: cell-based, human; details: 0.1 μM docetaxel, 24 hours
Method: Anti-angiogenesis agents were screened using highly purified populations of endothelial cells derived from fresh tumor specimens. 2×10^7 VEC that were sorted for the expression of CD31 and CD105 endothelial markers were exposed to 0.1 μM docetaxel or 50 μM BSO, a proprietary drug. […] After 24 hours of drug exposure in cytophobic plates, VEC were sorted under sterile conditions using the above Annexin V-flow cytometry protocol. To ensure the purity of sorted VEC, the sorted populations were reanalyzed by flow cytometry for Annexin V and PI staining, as shown in FIG. 17. The purity of the sorted VEC populations varied between 97.3% and 99.1%. Total RNA was isolated from both resistant (Annexin V−/PI−) and sensitive (Annexin V+/PI−) populations, and cDNA probes were hybridized with Research Genetics GeneFilters© microarrays containing over 40,000 known human gene sequences. In order to compare the microarray results for the drug-resistant sample to the drug-sensitive sample, FIG. 18 is a two-dimensional scatter plot constructed of intensity values from the microarrays normalized by converting to the fraction of total intensity and then log transformed, which was used to compare the microarray results for the resistant and sensitive sample. Diagonal lines were utilized that separated the genes that have more than a 2-fold difference in expression level.

[5] = system: HUVEC; assay: APO-DIRECT assay (late apoptosis, DNA breaks); assay type: cell-based, human; details: collagen I, 1 μM docetaxel, 48 hours, FIG. 8
From the text: The APO-DIRECT assay (Phoenix Flow Systems, San Diego, Calif.) utilizes single step fluorescent labeling and flow cytometric analysis by taking advantage of the multitude of 3′-hydroxyl termini of DNA present in apoptotic cells. One of the hallmarks of cellular self-destruction by apoptosis is the activation of nucleases that degrade the higher order chromatin structure of the DNA into fragments of 50 to 300 kilobases. These DNA fragments result in the appearance of “DNA laddering” when the DNA is analyzed by agarose gel electrophoresis. (Arends et al., 1990, Am. J. Pathol. 136:593-608). Apoptotic cells were identified by labeling the 3′-hydroxy ends of double- and single-stranded DNA breaks with fluorescent-tagged deoxyuridine triphosphate nucleotides (F-dUTP) using the enzyme deoxynucleotidyl transferase (TdT). […] The APO-DIRECT assay identified cells undergoing apoptosis at a later stage of programmed cell death than assays based on Annexin V binding.
In these experiments, HUVEC were incubated on collagen I for 48 hours in the presence of 1 μM docetaxel. The cells were fixed in paraformaldehyde and stored at −20° C. until use. […] The gating display was created according to Phoenix Flow protocol using Linear Red Fluorescence (DNA) on the X-axis and Log green Fluorescence (d-UTP) on the Y-axis. […]

[6] = system: HUVEC; assay: HUVEC tubulogenesis on MATRIGEL; assay type: cell-based, human; details: three hours after cell transfer
From the text: Functional tests were also used to characterize the differentiation status of VEC cultured in different growth environments in vitro, as previously described. (Hewett et al., 1993, In Vitro Cell Dev. Biol. 29A: 823-830; Benelli et al., 1999, Int. J. Biol Markers 14: 243-246). MATRIGEL, a three-dimensional support matrix that is composed of solubilized membranes extracted from Engelbreth-Holm-Swarm (“EHS”) mouse sarcoma cells, was used because of the ability of mammalian VEC derived from different tissue sources to form capillary-like tubules and generate branched and forked networks in this media. The major components of this matrix are ECM proteins, such as laminin, collagen IV, entactin, and heparan sulphate proteoglycan, as well as growth factors, such as bFGF and EGF. MATRIGEL has previously been used to induce and maintain differentiation of endothelial, muscle, and neuronal cells, and for the development of three-dimensional matrix and cell invasion systems in vitro. (Gargett et al., 2000, Hum. Reprod. 15:293-301; Voura et al., 1998, Microsc. Res. Tech. 43: 265-275).
VEC were cultured both on BIOCOAT MATRIGEL matrix-coated tissue culture flasks (Becton Dickinson), and on MATRIGEL matrix prepared from pre-frozen gels that were thawed, kept at +4° C. before use and solidified at +37° C. for 3-16 hours before testing. The optimal time to detect the formation of tubules and capillary-like networks on MATRIGEL was from 3-6 hours. (Gargett et al., 2000, Hum. Reprod. 15:293-301; Voura et al., 1998, Microsc. Res. Tech. 43: 265-275). […] No viable VEC were found in MATRIGEL cultures after 48 hours.

[7] = system: HUVEC; assay: HUVEC morphology by phase contrast microscopy; assay type: cell-based, human; details: HUVEC on collagen I, 48 hours; 10 μM or 1 μM docetaxel, 10 μM thalidomide, FIG. 11
Method: as §1

[8] = RESISTANT, resistant versus sensitive VEC
[9] = SENSITIVE, resistant versus sensitive VEC

Compound: Cc1cc(C)c(/C=C2\C(=O)Nc3ccccc32)[nH]1 [SU5416]
- IC50 [1]: 1000 nM

Compound: Cc1[nH]c(/C=C2\C(=O)Nc3ccccc32)c(C)c1CCC(=O)O [SU6668]
- IC50 [1]: 340 nM

Compound: CC(=O)O[C@@]12CO[C@@H]1C[C@H](O)[C@@]1(C)C(=O)[C@H](O)C3=C(C)[C@@H](OC(=O)[C@H](O)[C@@H](NC(=O)OC(C)(C)C)c4ccccc4)C[C@@](O)([C@@H](OC(=O)c4ccccc4)[C@H]21)C3(C)C [docetaxel]
- cells dead due to either apoptosis or necrosis [2]: 16%
- cells intact (Annexin V-negative, PI-negative) [2]: 80%
- cells undergoing apoptosis [2]: 3.5%
- Dil-ac-LDL uptake [3]: very few docetaxel-treated HUVEC took up DIL-as-LDL
- Ratio, Human HLK1 mRNA, complete cds [4, 8]: 3.6
- Ratio, Interferon regulatory factor 5 [4, 8]: 4.4
- Ratio, Keratin, type I cytoskeletal 14 [4, 8]: 4
- Ratio, Small proline-rich protein 1B (cornifin) [4, 8]: 3.6
- Ratio, Tuberin [4, 8]: 3.2
- Ratio, Fibrinogen beta-chain precursor ([4]; SENSITIVE): 4.9
- Ratio, Human TWIK-related acid-sensitive K + channel gene ([4]; SENSITIVE): 5.9
- Ratio, Human metallothionein (MT)I-F gene [4, 9]: 6.2
- Ratio, Human mucosal addressin cell adhesion molecule [4, 9]: 9.5
- Ratio, Human putative fatty acid desaturase [4, 9]: 5.2
- HUVEC that had undergone apoptosis [5]: 73%
- tubulogenesis on MATRIGEL ([6]; 10 μM, FIG. 13): complete absence of VEC-like tubules
- tubulogenesis and capillary-like network formation on MATRIGEL ([6]; lower doses (1, 0.1, 0.01, 0.001 μM)): inhibited tubulogenesis and capillary-like network formation
- effect on cell morphology [7]: rounded and partially detached HUVEC

Compound: O=C1CCC(N2C(=O)c3ccccc3C2=O)C(=O)N1 (stereo not shown) [thalidomide]
- effects on HUVEC tubulogenesis on MATRIGEL ([6]; 10, 1, 0.1, 0.01 and 0.001 μM): No effects
- effect on cell morphology [7]: no effect on HUVEC morphology
